≈ marks a conversion by molar mass, not a printed value.
Columns and labels:
Assay type in all cases: functional
[1] = system: Pseudomonas aeruginosa; assay: Antibacterial activity against Pseudomonas aeruginosa NCIM 2036 measured after 8 hrs by spectrophotometric method; details: NCIM 2036, 8 h
[2] = system: Staphylococcus aureus; assay: Antibacterial activity against Staphylococcus aureus NCIM 2079 measured after 12 hrs by spectrophotometric method; details: NCIM 2079, 12 h
[3] = system: Escherichia coli; assay: Antibacterial activity against Escherichia coli NCIM 2688 measured after 8 hrs by spectrophotometric method; details: NCIM 2688, 8 h
[4] = system: Bacillus subtilis; assay: Antibacterial activity against Bacillus subtilis NCIM 2010 measured after 12 hrs by spectrophotometric method; details: NCIM 2010, 12 h
[5] = system: Mycobacterium tuberculosis; assay: Antitubercular activity against active stage Mycobacterium tuberculosis H37Ra measured after 8 days by XTT assay; details: 192 h
[6] = system: Mycobacterium tuberculosis; assay: Antitubercular activity against dormant stage Mycobacterium tuberculosis H37Ra measured after 12 days by XTT assay; details: 288 h
[7] = system: Escherichia coli; assay: Antibacterial activity against Escherichia coli NCIM 2688 at 30 ug/ml measured after 8 hrs by spectrophotometric method; details: NCIM 2688, 8 h
[8] = system: Escherichia coli; assay: Antibacterial activity against Escherichia coli NCIM 2688 at 10 ug/ml measured after 8 hrs by spectrophotometric method; details: NCIM 2688, 8 h
[9] = system: Escherichia coli; assay: Antibacterial activity against Escherichia coli NCIM 2688 at 3 ug/ml measured after 8 hrs by spectrophotometric method; details: NCIM 2688, 8 h
[10] = system: Pseudomonas aeruginosa; assay: Antibacterial activity against Pseudomonas aeruginosa NCIM 2036 at 30 ug/ml measured after 8 hrs by spectrophotometric method; details: NCIM 2036, 8 h
[11] = system: Pseudomonas aeruginosa; assay: Antibacterial activity against Pseudomonas aeruginosa NCIM 2036 at 10 ug/ml measured after 8 hrs by spectrophotometric method; details: NCIM 2036, 8 h
[12] = system: Pseudomonas aeruginosa; assay: Antibacterial activity against Pseudomonas aeruginosa NCIM 2036 at 3 ug/ml measured after 8 hrs by spectrophotometric method; details: NCIM 2036, 8 h
[13] = system: Staphylococcus aureus; assay: Antibacterial activity against Staphylococcus aureus NCIM 2079 at 30 ug/ml measured after 12 hrs by spectrophotometric method; details: NCIM 2079, 12 h
[14] = system: Staphylococcus aureus; assay: Antibacterial activity against Staphylococcus aureus NCIM 2079 at 10 ug/ml measured after 12 hrs by spectrophotometric method; details: NCIM 2079, 12 h
[15] = system: Staphylococcus aureus; assay: Antibacterial activity against Staphylococcus aureus NCIM 2079 at 3 ug/ml measured after 12 hrs by spectrophotometric method; details: NCIM 2079, 12 h
[16] = system: Bacillus subtilis; assay: Antibacterial activity against Bacillus subtilis NCIM 2010 at 30 ug/ml measured after 12 hrs by spectrophotometric method; details: NCIM 2010, 12 h
[17] = system: Bacillus subtilis; assay: Antibacterial activity against Bacillus subtilis NCIM 2010 at 10 ug/ml measured after 12 hrs by spectrophotometric method; details: NCIM 2010, 12 h
[18] = system: Bacillus subtilis; assay: Antibacterial activity against Bacillus subtilis NCIM 2010 at 3 ug/ml measured after 12 hrs by spectrophotometric method; details: NCIM 2010, 12 h
[19] = system: Mycobacterium tuberculosis; assay: Antitubercular activity against dormant stage Mycobacterium tuberculosis H37Ra at 30 ug/ml measured after 12 days by XTT assay; details: 288 h
[20] = system: Mycobacterium tuberculosis; assay: Antitubercular activity against dormant stage Mycobacterium tuberculosis H37Ra at 10 ug/ml measured after 12 days by XTT assay; details: 288 h
[21] = system: Mycobacterium tuberculosis; assay: Antitubercular activity against dormant stage Mycobacterium tuberculosis H37Ra at 3 ug/ml measured after 12 days by XTT assay; details: 288 h

SMILES	IC50 [1]	MIC [1]	IC50 [2]	MIC [2]	IC50 [3]	MIC [3]	IC50 [4]	MIC [4]	IC50 [5]	MIC [5]	IC50 [6]	MIC [6]	inhibition at 30 µg/mL [7]	inhibition at 10 µg/mL [8]	inhibition at 3 µg/mL [9]	inhibition at 30 µg/mL [10]	inhibition at 10 µg/mL [11]	inhibition at 3 µg/mL [12]	inhibition at 30 µg/mL [13]	inhibition at 10 µg/mL [14]	also measured
O=C(NC[C@H]1CN(c2ccc(N3CC4(COC4)C3)c(F)c2)C(=O)O1)c1ccno1	0.51 µg/mL (≈ 1.27 µM)	2.57 µg/mL (≈ 6.39 µM)	0.88 µg/mL (≈ 2.19 µM)	2.05 µg/mL (≈ 5.09 µM)	0.71 to 0.72 µg/mL (≈ 1.76 to 1.79 µM)	4.56 to 4.6 µg/mL (≈ 11.3 to 11.4 µM)	0.49 µg/mL (≈ 1.22 µM)	2.35 µg/mL (≈ 5.84 µM)	6.4 µg/mL (≈ 15.9 µM)	10.9 µg/mL (≈ 27.1 µM)	9.58 µg/mL (≈ 23.8 µM)	21.2 µg/mL (≈ 52.8 µM)	99.9%	93.3%	88.3%	98.9%	94.9%	90.8%	98.5%	98.2%	inhibition at 3 µg/mL [15]: 95.1%; inhibition at 30 µg/mL [16]: 100%; inhibition at 10 µg/mL [17]: 97.3%; inhibition at 3 µg/mL [18]: 90.5%; inhibition at 30 µg/mL [19]: 95.4%; inhibition at 10 µg/mL [20]: 18.2%; inhibition at 3 µg/mL [21]: 4.35%
CC(=O)NC[C@H]1CN(c2ccc(C3=C[C@H]4CC[C@@H](C3)N4C(=O)OC(C)(C)C)c(F)c2)C(=O)O1	0.67 µg/mL (≈ 1.46 µM)	15.1 µg/mL (≈ 32.8 µM)	0.74 µg/mL (≈ 1.61 µM)	2.95 µg/mL (≈ 6.42 µM)	0.57 µg/mL (≈ 1.24 µM)	3.66 µg/mL (≈ 7.96 µM)	0.55 µg/mL (≈ 1.2 µM)	5.67 µg/mL (≈ 12.3 µM)	12.3 µg/mL (≈ 26.8 µM)	21.4 µg/mL (≈ 46.6 µM)	10.8 µg/mL (≈ 23.6 µM)	20.5 µg/mL (≈ 44.6 µM)	98.7%	94.4%	89.2%	93.9%	88.3%	83.8%	99.1%	97.9%	inhibition at 3 µg/mL [15]: 90.5%; inhibition at 30 µg/mL [16]: 99.1%; inhibition at 10 µg/mL [17]: 97.3%; inhibition at 3 µg/mL [18]: 85.7%; inhibition at 30 µg/mL [19]: 94.2%; inhibition at 10 µg/mL [20]: 79.6%; inhibition at 3 µg/mL [21]: 34.8%
O=C1O[C@@H](CNC(=S)Nc2ccccc2F)CN1c1ccc(N2CC3(COC3)C2)c(F)c1	0.98 µg/mL (≈ 2.13 µM)	15.9 µg/mL (≈ 34.5 µM)	0.6 µg/mL (≈ 1.3 µM)	5.76 µg/mL (≈ 12.5 µM)	> 100 µg/mL	> 100 µg/mL	1.31 µg/mL (≈ 2.84 µM)	5.18 µg/mL (≈ 11.2 µM)	16.3 µg/mL (≈ 35.5 µM)	41.1 µg/mL (≈ 89.3 µM)	22.8 µg/mL (≈ 49.6 µM)	41.6 µg/mL (≈ 90.4 µM)	51.9%	42.8%	25%	96%	87.4%	77.8%	99.3%	95.7%	inhibition at 3 µg/mL [15]: 85.9%; inhibition at 30 µg/mL [16]: 101%; inhibition at 10 µg/mL [17]: 96.6%; inhibition at 3 µg/mL [18]: 81%; inhibition at 30 µg/mL [19]: 87.6%; inhibition at 10 µg/mL [20]: 57.4%; inhibition at 3 µg/mL [21]: 25.1%
CC(=O)NC[C@H]1CN(c2ccc(N3CCOCC3)c(F)c2)C(=O)O1 [LINEZOLID]	0.49 µg/mL (≈ 1.45 µM)	1.31 µg/mL (≈ 3.88 µM)	0.42 µg/mL (≈ 1.24 µM)	1.13 µg/mL (≈ 3.35 µM)	0.49 µg/mL (≈ 1.45 µM)	1.15 µg/mL (≈ 3.41 µM)	0.64 µg/mL (≈ 1.9 µM)	1.8 µg/mL (≈ 5.34 µM)	0.8 µg/mL (≈ 2.37 µM)	1.31 µg/mL (≈ 3.88 µM)	0.71 µg/mL (≈ 2.1 µM)	1.25 µg/mL (≈ 3.71 µM)	100%	99.8%	99.3%	99.9%	99%	99.2%	99.1%	99.5%	inhibition at 3 µg/mL [15]: 99.5%; inhibition at 30 µg/mL [16]: 99.8%; inhibition at 10 µg/mL [17]: 99.4%; inhibition at 3 µg/mL [18]: 98.9%; inhibition at 30 µg/mL [19]: 95.5%; inhibition at 10 µg/mL [20]: 96.6%; inhibition at 3 µg/mL [21]: 84%

Source: ChEMBL document CHEMBL3865816, “Design, synthesis and biological evaluation of novel azaspiro analogs of linezolid as antibacterial and antitubercular agents” (Eur J Med Chem, 2016)
